Tests used:
[1] = target: T1, E. coli-expressed cytochrome P-450TYR (Sorghum bicolor, UniProt Q43135); assay: Reconstitution with E. coli-expressed cytochrome P-450TYR and sorghum NADPH cytochrome P450 reductase; format: biochemical; details: phenylalanine as substrate
T1 construct: in which the 35 N-terminal amino acids are replaced by the nine N-terminal amino acids from bovine 17α hydroxylase; nine N-terminal amino acids from bovine 17alpha-hydroxylase (replace the 35 N-terminal residues) (N); made in house; host or cells: E. coli JM109, vector pSP19g10L
Experimental: 10 μl of the lipid suspension is mixed in a glass vial with 50 μl of the cytochrome P-450TYR (0-1.5 pmol) solution. […] The reaction mixture is subsequently incubated for 1 hour at 30° C. At the end of the incubation period the reaction is stopped by transferring the glass vials onto ice. Radioactively labelled intermediates formed are extracted into 50 μl ehtyl acetate, applied to a silica coated TLC plate and developed using an ethyl acetate/toluene (1:5 v/v) mixture as mobile phase. The resultant product, p-hydroxyphenylacetaldehyde oxime is visualized by autoradiography of the TLC plate. Alternatively, the intermediates are analyzed by reverse-phase HPLC coupled to a Berthold radioactiviy monitor. […] Control samples may be made by omitting either cytochrome P-450 oxidoreductase or NADPH.
Reconstitution experiments with E. cole-expressed cytochrome P-450TYR and sorghum NADPH cytochorme P450 reductase in dilaurylpohsphatidylcholine micelles is performed as described in section 5.3. above.

[2] = system: glucosinolate production; assay: Induction of glucosinolate production in Tropaeolum majus; format: in vivo; details: 10 mM phenylalanine or 2% ethanol administered to the vermiculate, 24 hours, etiolated seedlings
Experimental: Seeds of Tropaeolum majus L. cv Empress of India (Dansk Havefroforsyning, Kolding, DK) are allowed to imbibe and germinate in complete darkness for one week at 25° C. In vivo biosynthesis experiments are performed wherein 1 μCi of the tracer ^14 C-labelled phenylalanine is administered to excised dark-grown seedlings for 24 hours followed by boiling of the plant material in 90% methanol and analysis of the extracts by HPLC as described by Lykkesfeldt and Moller, 1993. Prior to administration of the tracer to the excised seedling or leaf, the intact plant is subjected to a potential inducer for 24 hours.

[3] = target: T2, P-450TYR expressed in E. coli (Sorghum bicolor, UniProt Q43135); assay: Substrate binding spectra of P-450TYR expressed in E. coli
T2 construct: in which the 35 N-terminal amino acids are replaced by the nine N-terminal amino acids from bovine 17α hydroxylase; nine N-terminal amino acids from bovine 17alpha-hydroxylase (replace the 35 N-terminal residues) (N); made in house; host or cells: E. coli JM109, vector pSP19g10L
From the text: Cytochrome P-450TYR in the oxidized state has a strong absorption peak at 420 nm, representing the low spin state of the iron of the heme group. The binding of a ligand to the heme group shifts the absorption maximum by changing the spin state of the iron. Binding of tyrosine at the catalytic site of cytochrome P-450TYR induces a change of the spin state of the oxidized iron from low to high spin, and thereby changes the absorption maximum from 420 nm to 390 nm producing a type I spectrum (Jefcoate, Methods in Enzymology 52:258-279, 1978). The following experimental procedure is used to obtain the substrate binding spectrum: two identical cuvettes containing a buffered solution of the isolated cytochrome P-450 are prepared. The substrate of the enzyme is added to the sample cuvette whereas the same volume of buffer is added to the other cuvette. The difference spectrum is then recorded in an SLM-Aminco DW2c spectrophotometer. The absorption difference, A390-420, is proportional to the concentration of cytochrome P-450TYR with a bound substrate at its active site. If a saturating concentration of substrate is added to the sample cuvette, the absorption difference is proportional to the concentration of the substrate specific cytochrome P-450 in the cuvettes. The saturating concentration of the substrate is determined by titrating the cytochrome P-450 sample with increasing amounts of substrate and monitoring A390-420.
A modified cytocrome P-450TYR, in which the 35 N-terminal amino acids are replaced by the nine N-terminal amino acids from bovine 17α hydroxylase is introduced into the expression vector pSP19g10L which can be obtained from Dr. Henry Barnes (La Jolla, Calif.). This plasmid contains the lac Z promoter fused with the known short leader sequence (g10L) of gene 10 from bacteriophage T7 (Olin et al, 1988). A construct containing the N-terminal amino acids from bovine 17α hydroxylase and a truncated form of the P-450TYR gene is designed using PCR mutagenesis: Oligonucleotide TYROL 1d (5'-CGGGATCCATATGGCTCTGTTATTAGCAGTTTTTCTGTCGTACCTGGCCCG-3'; SEQ ID NO 23) containing a 5' mutant cDNA sequence as well as a BamHI and NdeI restriction site is used together with oligonucleotide TYROL 3 comprising the sequence surrounding the unique BamHI restriction site downstream of the ATG start codon of the cDNA coding for P-450TYR to amplify a modified N-terminal sequence of P-450TYR. The amplification product is cut with NdeI and BamHI restriction enzymes. To introduce a HindIII site immediately downstream of the stop codon of the P-450TYR gene, oligonucleotides TYROL 2 and TYROL 4 are used in a polymerase chain reaction to obtain a C-terminal fragment of the P-450TYR gene comprising a HindIII restriction site immediately downstream of the stop codon. The amplification product is cut with PstI and HindIII restriction enzymes. The complete expression plasmid is constructed by simultaneous ligation of the N-terminal NdeI/BamHI fragment, the BamHI/PstI fragment of the P-450TYR gene and the C-terminal PstI/HindIII fragment into NdeI/HindIII cleaved pSP19g10L vector DNA. The expression vector obtained is transformed into E. coli strain JM109. Transformed E. coli produce 300 nmol to 500 nmol cytochrome P-450TYR per liter cell culture upon growth at 28° C. in the presence of 1 mM isopropyl-β-D-thiogalactopyranoside and at 125 rpm. Expression levels as high as 900 nmol per liter, equivalent to 55 mg P-450TYR per liter, have been obtained. […]

T1 sequence (Q43135 other isoform, or with tags, fused parts or gaps): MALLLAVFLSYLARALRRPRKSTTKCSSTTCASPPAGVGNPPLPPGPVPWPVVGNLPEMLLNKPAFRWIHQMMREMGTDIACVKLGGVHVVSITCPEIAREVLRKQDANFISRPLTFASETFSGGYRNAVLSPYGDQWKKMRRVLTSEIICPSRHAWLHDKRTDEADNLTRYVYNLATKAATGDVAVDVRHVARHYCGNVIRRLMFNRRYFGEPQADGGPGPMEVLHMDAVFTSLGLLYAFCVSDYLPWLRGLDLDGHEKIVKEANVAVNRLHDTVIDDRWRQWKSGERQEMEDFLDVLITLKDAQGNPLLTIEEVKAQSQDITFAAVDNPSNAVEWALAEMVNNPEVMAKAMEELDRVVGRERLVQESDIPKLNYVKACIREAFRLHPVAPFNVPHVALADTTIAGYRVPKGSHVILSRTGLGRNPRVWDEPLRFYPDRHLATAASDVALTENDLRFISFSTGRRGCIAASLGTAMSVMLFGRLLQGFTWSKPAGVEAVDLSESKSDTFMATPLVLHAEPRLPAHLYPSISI
T2 sequence (Q43135 other isoform, or with tags, fused parts or gaps): as above

N[C@@H](Cc1ccccc1)C(=O)O [phenylalanine]
production of the corresponding oxime [1]: do not result in the production of the corresponding oxime
increase in glucosinolate production as compared to control experiments with water [2]: threefold increase
type of substrate binding spectrum [3]: type Ispectrum

Source: patent US5882851A, “Cytochrome P-450 monooxygenases” (Novartis Finance Corporation, priority 1993, dated 1999)
